Measured values: the supplement of paper PMC10307832

Columns and labels:
Assay in all cases: relative viability (nuclei count vs DMSO), 5 days (fraction); higher = more cells survive
[1] = compound: COc1cc2nc(N3CCCN(C)CC3)nc(NC3CCN(Cc4ccccc4)CC3)c2cc1OC + C[C@@H](Oc1cc(-c2cnn(C3CCNCC3)c2)cnc1N)c1c(Cl)ccc(F)c1Cl [Crizotinib] (partner 1 µM)
Procedure, shortened: (§1)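 Lung cancer cell lines were seeded in 1536-well plates and dosed by pin tool the next day, with either a single drug or a fixed anchor-drug dose combined with five library-drug doses (not always all listed) spaced in √10 steps. Five days later, one step fixed the cells and stained their nuclei (final 0.05% Triton X-100, 1% formaldehyde, 1 ug/ml Hoechst), and nuclei were counted on 4× images. Relative viability is the nuclei count in treated wells divided by the count in vehicle wells, and each value is the median of duplicate plates.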

[2] = compound: Cc1cc([C@@H](C)Nc2ccccc2C(=O)O)c2nc(N3CCOCC3)cc(=O)n2c1 [AZD6482] + NC(=O)Nc1cc(-c2cccc(F)c2)sc1C(=O)N[C@H]1CCCNC1 [AZD7762] (partner 0.2 µM)
Procedure, shortened: as §1

[3] = compound: COc1cc2nc(N3CCCN(C)CC3)nc(NC3CCN(Cc4ccccc4)CC3)c2cc1OC + CC(C)C[C@H](NC(=O)[C@H](Cc1ccccc1)NC(=O)c1cnccn1)B(O)O [Bortezomib] (partner 0.002 µM)
Procedure, shortened: as §1

[4] = compound: Cc1cc([C@@H](C)Nc2ccccc2C(=O)O)c2nc(N3CCOCC3)cc(=O)n2c1 [AZD6482] + CC(C)C[C@H](NC(=O)[C@H](Cc1ccccc1)NC(=O)c1cnccn1)B(O)O [Bortezomib] (partner 0.002 µM)
Procedure, shortened: as §1

Cell Line	relative viability ([1]; first compound 0.2 µM)	relative viability ([1]; first compound 0.6325 µM)	relative viability ([1]; first compound 6.325 µM)	relative viability ([2]; first compound 0.08 µM)	relative viability ([2]; first compound 0.253 µM)	relative viability ([2]; first compound 0.8 µM)	relative viability ([2]; first compound 2.53 µM)	relative viability ([2]; first compound 8 µM)	relative viability ([3]; first compound 0.2 µM)	relative viability ([3]; first compound 0.6325 µM)	relative viability ([3]; first compound 2 µM)	relative viability ([3]; first compound 6.325 µM)	relative viability ([1]; first compound 2 µM)	relative viability ([4]; first compound 0.08 µM)	relative viability ([4]; first compound 0.253 µM)	relative viability ([4]; first compound 0.8 µM)	relative viability ([4]; first compound 2.53 µM)	relative viability ([4]; first compound 8 µM)
NCI-H1944	1.12	1.07	1.17	0.57	0.522	0.499	0.381	0.417										
LU99A	0.563	0.576	0.56	0.338	0.356	0.254	0.317	0.344	1.26	1.08	1.22	1.01	0.553	1.07	1.16	1.11	0.875	0.823
SW 1573	0.893	0.845	0.819						1.16	0.893	0.882	0.853	0.88	0.92	0.86	0.877	0.613	0.633
NCI-H2347	0.794	0.675	0.626	0.502	0.464	0.332	0.32	0.373	1.04	0.846	1.08	1.07	0.634	0.755	0.681	0.873	0.619	0.496
NCI-H2009	1.05	0.923	0.874						0.94	0.833	1.08	0.965	1.06	0.985	1.04	1.04	0.601	0.783
HCC-15	0.817	0.82	0.711	1.24	1.4	1.26	1.18	1.11	1.03	1.02	1.12	0.881	0.823	0.926	0.99	1.08	0.904	1.04
HCC-44	0.839	0.721	0.819	0.897	0.997	1.1	1.11	1.38	0.935	0.85	0.991	0.909	0.813	0.799	1.01	0.975	1.04	0.88
COR-L23	0.471	0.562	0.673						0.956	0.884	1.11	0.933	0.711	0.948	0.945	1.23	0.678	0.828
HCC-78	0.333	0.377	0.352	0.671	0.388	0.57	0.327	0.409	0.511	0.434	0.535	0.504	0.332	0.42	0.394	0.337	0.203	0.225
NCI-H1299	0.945	0.976	0.909						1.01	1.01	1.02	1.05	0.94	0.916	1.03	1.11	0.957	1.1
NCI-H727	0.757	0.752	0.592	0.684	0.596	0.596		0.578	0.756	0.893	0.751	0.618	1.13	0.908	0.868	1.06		0.887
